From patent publication US11718612B2, “Inhibitors of receptor interacting protein kinase I for the treatment of disease” (Board of Regents, The University of Texas System, priority 2019, dated 2023)

How the values were obtained:
[1] = biological target: RIPK1 (Homo sapiens (Human), UniProt Q13546); test: ADP-Glo kinase assay, RIPK1 activity; type: biochemical; settings: 5 nM RIPK1, 50 μM ATP, 6 hr reaction
Method: In order to measure RIPK1 activity the ADP-Glo kinase assay (Promega, Catalog #V7002) was used to measure the conversion of ATP to ADP. This enzymatic assay was performed in a 384-well white, Optiplate (Perkin Elmer, Catalog #6007299) with assay buffer consisting of 50 mM HEPES pH 7.5 (Gibco, Catalog #15630-080), 50 mM NaCl (Teknova, Catalog #S0252), 30 mM MgCl2 (Ambion, Catalog #AM9530G), 1 mM DTT (Santa Cruz Biotechnology, Catalog #sc-29089), 0.05% BSA (Sigma, Catalog #A3059-50G) and 0.02% CHAPS (Sigma, Catalog #C5070-5G). Stock solutions of the test compounds were prepared in 100% DMSO (Sigma, Catalog #D2650) and serially diluted 1:3 using 100% DMSO. Compounds were additionally diluted 1:40 in assay buffer, and 2 μL/well were transferred to the assay plate. 4 μL/well (final concentration of 5 nM) of RIPK1 protein (SignalChem, Catalog #R07-11G-05) diluted in assay buffer and added to the assay plate followed by a 10 minute preincutation at room temperature. 4 μL/well of ATP (Promega, Catalog #V7002) (final concentration of 50 μM) diluted in assay buffer were then added to the assay plate followed by a 6 hr reaction time. Final concentrations of RIPK1 and ATP refer to a 10 μL volume. Luminescence was measured using a BioTek Synergy™ NEO plate reader. IC50 values were calculated using a four-parameter logistic curve fit using Genedata Screener software.

[2] = tested on: U937 cells; test: Human U937 cellular necroptosis assay; type: cell-based; settings: U-937; U937 cells stimulated with 25 ng/mL human TNFalpha and 25 μM z-VAD-FMK; 22 hr; Cell Titer-Glo viability
Method: Human U937 Cellular Necroptosis Assay
The human monocytic cell line U937 (CRL-1593.2) may be purchased from ATCC. The cells are routinely maintained in RPMI-1640 Medium (Gibco, Catalog #11875-093) supplemented with 10% heat inactivated fetal bovine serum (Gibco, Catalog #16140-071), 100 units/mL penicillin and 100 μg/mL streptomycin (Gibco, Catalog #15140-122), in a humidified incubator (37° C., 5% CO2). For the assay, cells are resuspended in RPMI-1640 phenol red free Media (Gibco, Catalog #11835-030) supplemented with 10% fetal bovine serum (Sigma, Catalog #F2442), 100 units/mL penicillin and 100 ug/mL streptomycin. […] Stock solutions of the test compounds are prepared in 100% DMSO (Sigma, Catalog #D2650) and serially diluted 1:3 using 100% DMSO. Compounds are additionally diluted 1:40 in assay medium, and 10 μL/well was transferred to the plate. Following the compound addition, the plate is incubated at 37° C. and 5% CO2 for 22 hr. After 22 hr, viability is assessed with the addition of 20 μL of Cell Titer-Glo 2.0 (Promega, Catalog #G9243). The tissue culture plate is shaken on an orbital shaker at 300 RPM for 15 minutes at room temperature in the dark. Luminescence is measured using a PerkinElmer Envision™ plate reader. IC50 values are calculated using a four-parameter logistic curve fit using Genedata Screener software.

RIPK1, sequence (Q13546 1-327): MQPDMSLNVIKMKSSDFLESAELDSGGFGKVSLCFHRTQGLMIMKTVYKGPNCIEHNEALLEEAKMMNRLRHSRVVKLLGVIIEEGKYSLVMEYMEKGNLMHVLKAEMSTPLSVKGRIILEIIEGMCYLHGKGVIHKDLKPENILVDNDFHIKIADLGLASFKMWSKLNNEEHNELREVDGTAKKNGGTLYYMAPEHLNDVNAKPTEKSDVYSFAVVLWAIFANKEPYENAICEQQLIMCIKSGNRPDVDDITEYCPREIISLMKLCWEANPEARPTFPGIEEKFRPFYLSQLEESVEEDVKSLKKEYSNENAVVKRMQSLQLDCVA

Q: What does the source list for `O=C(Nc1cccc(Cl)c1F)c1ncn(Cc2cccc(F)c2)n1` [Example 88, N-(3-chloro-2-fluorophenyl)-1-(3-fluorobenzyl)-1H-1,2,4-triazole-3-carboxamide]?
A: IC50 [1]: 36.3 nM; IC50 [2]: 872 nM

Q: Which results are given for `O=C1c2nn(Cc3cncc(F)c3)c(Cl)c2CCN1c1cccc(Cl)c1F` [Example 54, 3-Chloro-6-(3-chloro-2-fluorophenyl)-2-((5-fluoropyridin-3-yl)methyl)-5,6-dihydro-2H-pyrazolo[3,4-c]pyridin-7(4H)-one]?
A: IC50 [1]: 131 nM; IC50 [2]: 128 nM

Q: Which IC50 [1] does the source give for `Cn1cc(-c2cc(Cl)c(F)c(NC(=O)c3n[nH]c(Cc4ccccc4)n3)c2)cn1` [Example 25, 5-benzyl-N-(3-chloro-2-fluoro-5-(1-methyl-1H-pyrazol-4-yl)phenyl)-1H-1,2,4-triazole-3-carboxamide] here?
A: 4350 nM

Q: What about the IC50 [2] of the same compound?
A: 10000 nM

Q: Which IC50 [1] does the source give for `Cc1nc(C(=O)Nc2ccc(OC(F)(F)F)cc2)nn1Cc1ccccc1` [Example 52, 1-benzyl-5-methyl-N-(4-(trifluoromethoxy)-phenyl)-1H-1,2,4-triazole-3-carboxamide] here?
A: 4620 nM

Q: And the IC50 [2]?
A: > 10000 nM

Q: How did the IC50 [1] turn out when `O=C(Nc1ccc(O)c(Cl)c1F)c1ncn(Cc2ccccc2)n1` [Example 31, 1-benzyl-N-(3-chloro-2-fluoro-4-hydroxy-phenyl)-1H-1,2,4-triazole-3-carboxamide] was run?
A: 160 nM

Q: What about the IC50 [2] of the same compound?
A: 1700 nM

Q: Which results are given for `Cn1cc(-c2cc(F)c(F)c(NC(=O)c3n[nH]c(Cc4ccccc4)n3)c2)cn1` [Example 11, 5-Benzyl-N-(2,3-difluoro-5-(1-methyl-1H-pyrazol-4-yl)-phenyl)-1H-1,2,4-triazole-3-carboxamide]?
A: IC50 [1]: 4060 nM; IC50 [2]: > 10000 nM

Q: `O=C(Nc1cccc(Cl)c1F)c1nnc(Cc2ccccc2)o1` [Example 19, 5-Benzyl-N-(3-chloro-2-fluorophenyl)-1,3,4-oxadiazole-2-carboxamide] was tested. Which IC50 [1] did it give?
A: 1010 nM

Q: And the IC50 [2]?
A: > 10000 nM

Q: `O=C(Nc1cccc(Cl)c1F)c1ncn(Cc2ccccc2)n1` [Example 27, 1-benzyl-N-(3-chloro-2-fluorophenyl)-1H-1,2,4-triazole-3-carboxamide] was tested. Which IC50 [1] did it give?
A: 30.6 nM

Q: What about the IC50 [2] of the same compound?
A: 851 nM

Q: How did the IC50 [1] turn out when `O=C1c2nn(Cc3cc(F)ccc3F)c(Br)c2CCN1c1cccc(Cl)c1F` [Example 101, 3-Bromo-6-(3-chloro-2-fluorophenyl)-2-(2,5-difluorobenzyl)-2,4,5,6-tetrahydro-7H-pyrazolo[3,4-c]pyridin-7-one] was run?
A: 17.4 nM

Q: And the IC50 [2]?
A: 16.2 nM

Q: For `O=C(Nc1cccc(Cl)c1)c1n[nH]c(Cc2ccccc2)n1` [Example 21, 5-benzyl-N-(3-chlorophenyl)-1H-1,2,4-triazole-3-carboxamide], which IC50 [1] is on record?
A: 854 nM

Q: What about the IC50 [2] of the same compound?
A: > 10000 nM

Q: Which IC50 [1] does the source give for `Cn1nc(C(=O)Nc2cccc(Cl)c2F)nc1Cc1ccccc1` [Example 10, 5-Benzyl-N-(3-chloro-2-fluoro-phenyl)-1-methyl-1,2,4-triazole-3-carboxamide] here?
A: 702 nM

Q: What about the IC50 [2] of the same compound?
A: 9220 nM

Q: With `Cc1ccc(Cn2cnc(C(=O)Nc3cccc(Cl)c3F)n2)cc1F` [Example 87, N-(3-chloro-2-fluorophenyl)-1-(3-fluoro-4-methylbenzyl)-1H-1,2,4-triazole-3-carboxamide] as the compound, how does the IC50 [1] read?
A: 32.2 nM

Q: And the IC50 [2]?
A: 4300 nM

Q: With `O=C(Nc1cccc2nn[nH]c12)c1ncn(Cc2ccccc2)n1` [Example 100, N-(1H-benzo[d][1,2,3]triazol-7-yl)-1-benzyl-1H-1,2,4-triazole-3-carboxamide] as the compound, how does the IC50 [1] read?
A: 685 nM

Q: And the IC50 [2]?
A: 4140 nM

Q: Which IC50 [1] does the source give for `O=C(Nc1ccc(F)c(Cl)c1F)c1ncn(Cc2ccccc2)n1` [Example 28, 1-benzyl-N-(3-chloro-2,4-difluorophenyl)-1H-1,2,4-triazole-3-carboxamide] here?
A: 40.3 nM

Q: What about the IC50 [2] of the same compound?
A: 1470 nM

Q: How did the IC50 [1] turn out when `Cc1nc(C(=O)Nc2cccc(Cl)c2F)nn1Cc1cnccn1` [Example 4, N-(3-Chloro-2-fluoro-phenyl)-5-methyl-1-(pyrazin-2-ylmethyl)-1,2,4-triazole-3-carboxamide] was run?
A: 110 nM

Q: And the IC50 [2]?
A: 1430 nM

Q: `O=C(Nc1cccc(Cl)c1F)c1ncn(Cc2ccccc2F)n1` [Example 12, N-(3-chloro-2-fluorophenyl)-1-(2-fluorobenzyl)-1H-1,2,4-triazole-3-carboxamide] was tested. Which IC50 [1] did it give?
A: 18.6 nM

Q: What about the IC50 [2] of the same compound?
A: 657 nM

Q: For `O=C(Nc1cccc(Cl)c1F)c1ncn(Cc2ccc(F)cn2)n1` [Example 89, N-(3-chloro-2-fluorophenyl)-1-((5-fluoropyridin-2-yl)methyl)-1H-1,2,4-triazole-3-carboxamide], which IC50 [1] is on record?
A: 1600 nM

Q: And the IC50 [2]?
A: 5580 nM

Q: Which IC50 [1] does the source give for `O=C(Nc1ccc(OC(F)(F)F)cc1F)c1ncn(Cc2ccccc2)n1` [Example 51, 1-benzyl-N-(2-fluoro-4-(trifluoromethoxy)-phenyl)-1H-1,2,4-triazole-3-carboxamide] here?
A: 807 nM

Q: And the IC50 [2]?
A: 8240 nM

Q: What does the source list for `Cn1cc(-c2cc(Cl)c(F)c(NC(=O)c3ncn(Cc4ccccc4)n3)c2)cn1` [Example 36, 1-benzyl-N-(3-chloro-2-fluoro-5-(1-methyl-1H-pyrazol-4-yl)phenyl)-1H-1,2,4-triazole-3-carboxamide]?
A: IC50 [1]: 804 nM; IC50 [2]: 10000 nM

Q: Which IC50 [1] does the source give for `Cc1nc(C(=O)Nc2cccc(Cl)c2F)nn1Cc1ccccc1` [Example 13, 1-benzyl-N-(3-chloro-2-fluorophenyl)-5-methyl-1H-1,2,4-triazole-3-carboxamide] here?
A: 41.9 nM

Q: And the IC50 [2]?
A: 1270 nM

Q: Which IC50 [1] does the source give for `O=C1c2nn(Cc3ccccc3)c(Cl)c2CCN1c1cccc(Cl)c1F` [Example 2, 2-Benzyl-3-chloro-6-(3-chloro-2-fluoro-phenyl)-4,5-dihydropyrazolo[3,4-c]pyridin-7-one] here?
A: 17.4 nM

Q: What about the IC50 [2] of the same compound?
A: 71.2 nM

Q: For `O=C(Nc1cccc(Cl)c1F)c1nc2n(n1)[C@H](c1ccccc1)C[C@@H]2F` [Example 47, (5S,7S)—N-(3-chloro-2-fluorophenyl)-7-fluoro-5-phenyl-6,7-dihydro-5H-pyrrolo[1,2-b][1,2,4]triazole-2-carboxamide], which IC50 [1] is on record?
A: 48.4 nM

Q: What about the IC50 [2] of the same compound?
A: 24.8 nM

Q: For `O=C(Nc1cccc(Cl)c1F)c1n[nH]c(Cc2ccccc2)n1` [Example 9, 5-benzyl-N-(3-chloro-2-fluoro-phenyl)-1H-1,2,4-triazole-3-carboxamide], which IC50 [1] is on record?
A: 245 nM

Q: What about the IC50 [2] of the same compound?
A: 6300 nM

Q: What does the source list for `O=C(Nc1ccccc1F)c1n[nH]c(Cc2ccccc2)n1` [Example 20, 5-benzyl-N-(2-fluorophenyl)-1H-1,2,4-triazole-3-carboxamide]?
A: IC50 [1]: 521 nM; IC50 [2]: 6230 nM

Q: How did the IC50 [1] turn out when `O=C(Nc1cc(Cl)cc(Cl)c1)c1n[nH]c(Cc2ccccc2)n1` [Example 24, 5-benzyl-N-(3,5-dichlorophenyl)-1H-1,2,4-triazole-3-carboxamide] was run?
A: 3360 nM

Q: And the IC50 [2]?
A: > 10000 nM

Q: With `NC(=O)c1cccc(Cn2nc3c(c2Cl)CCN(c2cccc(Cl)c2F)C3=O)c1` [Example 75, 3-((3-chloro-6-(3-chloro-2-fluorophenyl)-7-oxo-4,5,6,7-tetrahydro-2H-pyrazolo[3,4-c]pyridin-2-yl)methyl)benzamide] as the compound, how does the IC50 [1] read?
A: 297 nM

Q: What about the IC50 [2] of the same compound?
A: 1160 nM

Q: `O=C(Nc1cccc(Cl)c1F)c1ncn(Cc2ncccc2F)n1` [Example 102, N-(3-chloro-2-fluorophenyl)-1-((3-fluoropyridin-2-yl)methyl)-1H-1,2,4-triazole-3-carboxamide] was tested. Which IC50 [1] did it give?
A: 195 nM

Q: What about the IC50 [2] of the same compound?
A: 1260 nM

Q: Which results are given for `Cc1ccc(Cn2cnc(C(=O)Nc3cccc(Cl)c3F)n2)cc1` [Example 86, N-(3-chloro-2-fluorophenyl)-1-(4-methylbenzyl)-1H-1,2,4-triazole-3-carboxamide]?
A: IC50 [1]: 564 nM; IC50 [2]: 2080 nM

Q: `O=C(Nc1cccc(F)c1F)c1n[nH]c(Cc2ccccc2)n1` [Example 22, 5-benzyl-N-(2,3-difluorophenyl)-1H-1,2,4-triazole-3-carboxamide] was tested. Which IC50 [1] did it give?
A: 1570 nM

Q: And the IC50 [2]?
A: > 10000 nM

Q: What does the source list for `COc1c2c(nn1Cc1cc(F)ccc1F)C(=O)N(c1cccc(Cl)c1F)CC2` [Example 57, 6-(3-Chloro-2-fluorophenyl)-2-(2,5-difluorobenzyl)-3-methoxy-5,6-dihydro-2H-pyrazolo[3,4-c]pyridin-7(4H)-one]?
A: IC50 [1]: 22 nM; IC50 [2]: 115 nM
